Assay results published in patent US20110263693A1, “CELASTROL, GEDUNIN, AND DERIVATIVES THEREOF AS HSP90 INHIBITORS” (DANA-FARBER CANCER INSTITUTE, INC., priority 2006, published 2011).

Experiments:
[1] = system: celastrol signature; test: Connectivity Map query with the celastrol signature; type: cell-based, human; set-up: key to celastrol score (connectivity score): connectivity score, based on Kolmogorov-Smirnov statistic; conditions: for celastrol score (connectivity score): enrichment of the celastrol signature (1.25 μM celastrol at 6 h, LNCaP) in the compound's Connectivity Map profiles, 6 hr treatment; for celastrol rank: rank by celastrol score among 164 Connectivity Map compounds
Text: (§1) Indeed, a major challenge in cell-based chemical biology and chemical genomics is the identification of compounds' targets (Gardner et al., 2003). We hypothesized that gene expression signatures could be used to identify compound action based on the similarity of such compound-induced signatures to signatures of existing drugs of known mechanism. We therefore employed a collection of gene expression profiles of drug-treated cell lines that was developed in our lab, termed the Connectivity Map (Lamb et al., 2006). This database comprises 453 genome-wide Affymetrix expression profiles derived from the treatment of human cell lines with 164 small molecules, primarily FDA-approved drugs. A 6 hr treatment time was chosen in an attempt to capture the primary, and potentially mechanistic, effects of the compounds rather than the downstream phenotypic consequences.
(§2) In order to use the Connectivity Map to gain insight into celastrol and gedunin function, we first defined a gene expression signature of celastrol and gedunin activity. The expression signatures of celastrol and gedunin were derived by expression profiling of RNA from LNCaP cells treated with celastrol (1.25 μM), gedunin (20 μM), and vehicle (DMSO) for 6 hr; signatures were defined using comparative marker selection to identify transcripts that distinguished between the compound- and vehicle-treated profiles by the signal-to-noise (SNR) metric. The enrichment of these signatures in the gene expression profiles of the Connectivity Map database was then assessed using a gene enrichment metric, the connectivity score, based on the Kolmogorov-Smirnov statistic (Lamb et al., 2003).
(§3) The celastrol and gedunin signatures were developed from RMA-processed microarray data from LNCaP cells treated with 1.25 μM celastrol or 20 μM gedunin for 6 hours. Comparative marker selection was used to identify markers that distinguished celastrol- and/or gedunin-treated samples from vehicle-treated samples by the median SNR (Golub et al., 1999). The top 50 markers that increased and decreased relative to vehicle-treated controls were used as the signatures.
(§4) The current version of the Connectivity Map data set (build01) contains genome-wide expression data for 453 treatment and vehicle control pairs, representing 164 distinct small molecules. Cell treatments and Affymetrix profiling were predominantly carried out in MCF7 cells with 6 hr treatments as detailed (Table 4) (Lamb et al., 2006). Enrichment of the induced and repressed genes of a signature within each Connectivity Map treatment profile was estimated with a metric based on the Kolmogorov-Smirnov statistic as described (Lamb et al., 2003, Lamb et al., 2006). Connectivity Map data are available at www.broad.mit.edu/cmap/ and GEO (accession number GSE5258).
(§5) For the celastrol and gedunin signatures, RMA-processed data was filtered and thresholded (min fold change=2, min absolute change=50, floor=10, ceiling=16000). Comparative marker selection (GenePattern) was used to identify markers that distinguished celastrol- and/or gedunin-treated samples from vehicle-treated samples by the median SNR. The top fifty markers that increased and decreased relative to vehicle treated controls were used as the celastrol, gedunin, or joint celastrol/gedunin signatures.
(§6) The current version of The Connectivity Map dataset (build01) contains genome-wide expression data for 453 treatment and vehicle control pairs, representing 164 distinct small molecules. Cell treatments were predominantly carried out in the MCF7 cell line for 6 h as detailed in Table 4. Affymetrix profiling was then carried out as described (Lamb et al., 2006).

[2] = system: gedunin signature; test: Connectivity Map query with the gedunin signature; type: cell-based, human; set-up: key to gedunin score (connectivity score): connectivity score, based on Kolmogorov-Smirnov statistic; conditions: for gedunin score (connectivity score): enrichment of the gedunin signature (20 μM gedunin at 6 hours, LNCaP) in the compound's Connectivity Map profiles, 6 hr treatment; for gedunin rank: rank by gedunin score among 164 Connectivity Map compounds
Text: as §1, §2, §3, §4, §5, §6

COc1ccc2c(c1)c(CC(=O)O)c(C)n2C(=O)c1ccc(Cl)cc1 [indometacin]
celastrol score (connectivity score) [1]: 0.228
gedunin score (connectivity score) [2]: 0.087

O=c1[nH]c2ccccc2c2ccccc12 [phenanthridinone]
celastrol score (connectivity score) [1]: 0.429
celastrol rank [1]: 32
gedunin score (connectivity score) [2]: −1
gedunin rank [2]: 164

O=c1c(O)c(-c2ccc(O)c(O)c2)oc2cc(O)cc(O)c12 [quercetin]
celastrol score (connectivity score) [1]: −0.111
gedunin score (connectivity score) [2]: −0.431

C[C@@H]1NC(=O)[C@H]2CCCN2C(=O)[C@H](CCCCCC(=O)[C@@H]2CO2)NC(=O)[C@@H](C)NC1=O [HC toxin]
celastrol score (connectivity score) [1]: 0
celastrol rank [1]: 90
gedunin score (connectivity score) [2]: 0.526
gedunin rank [2]: 15

CO[C@H]1C[C@@H]2CC[C@@H](C)[C@@](O)(O2)C(=O)C(=O)N2CCCC[C@H]2C(=O)O[C@H]([C@H](C)C[C@@H]2CC[C@@H](O)[C@H](OC)C2)CC(=O)[C@H](C)/C=C(\C)[C@@H](O)[C@@H](OC)C(=O)[C@H](C)C[C@H](C)/C=C/C=C/C=C/1C [sirolimus]
celastrol score (connectivity score) [1]: −0.283
gedunin score (connectivity score) [2]: 0

C[C@]12C=CC(=O)C=C1CC[C@@H]1[C@@H]2[C@@H](O)C[C@@]2(C)[C@H]1CC[C@]2(O)C(=O)CO [prednisolone]
celastrol score (connectivity score) [1]: 0
gedunin score (connectivity score) [2]: 0

CN[C@H]1CCc2cc(OC)c(OC)c(OC)c2-c2ccc(OC)c(=O)cc21 [demecolcine]
celastrol score (connectivity score) [1]: 0
gedunin score (connectivity score) [2]: 0

COc1cc2ncnc(Nc3ccc(F)c(Cl)c3)c2cc1OCCCN1CCOCC1 [gefitinib]
celastrol score (connectivity score) [1]: −0.713
gedunin score (connectivity score) [2]: 0

NCCNCCNCCNCCN [tetraethylenepentamine]
celastrol score (connectivity score) [1]: −0.039
gedunin score (connectivity score) [2]: −0.092

N=C1C=CC(=C(c2ccc(N)cc2)c2ccc(N)cc2)C=C1 [pararosaniline]
celastrol score (connectivity score) [1]: 0.579
gedunin score (connectivity score) [2]: 0.496

O=C1CCc2c(ccc3ccccc23)O1 [splitomicin]
celastrol score (connectivity score) [1]: −0.525
gedunin score (connectivity score) [2]: 0

[Cl][Co][Cl] [cobalt chloride]
celastrol score (connectivity score) [1]: 0.269
celastrol rank [1]: 48
gedunin score (connectivity score) [2]: 0.1
gedunin rank [2]: 72

ikarugamycin
celastrol score (connectivity score) [1]: 0.172
celastrol rank [1]: 59
gedunin score (connectivity score) [2]: 0
gedunin rank [2]: 124

CN(CCOc1ccc(CC2SC(=O)NC2=O)cc1)c1ccccn1 (stereo not shown) [rosiglitazone]
celastrol score (connectivity score) [1]: 0.098
gedunin score (connectivity score) [2]: 0

C=C1C[C@@H]2[C@H](CC[C@]3(C)C(=O)CC[C@@H]23)[C@@]2(C)C=CC(=O)C=C12 [exemestane]
celastrol score (connectivity score) [1]: 0.427
gedunin score (connectivity score) [2]: 0

CO[C@@H]1[C@@H](OC(N)=O)[C@@H](O)[C@H](Oc2ccc3c(O)c(NC(=O)c4ccc(O)c(CC=C(C)C)c4)c(=O)oc3c2C)OC1(C)C [novobiocin]
celastrol score (connectivity score) [1]: 0.167
gedunin score (connectivity score) [2]: 0.261

O=c1cc(N2CCOCC2)oc2c(-c3ccccc3)cccc12 [LY-294002]
celastrol score (connectivity score) [1]: −0.512
gedunin score (connectivity score) [2]: 0

Oc1cccc2c(O)nccc12 [1,5-isoquinolinediol]
celastrol score (connectivity score) [1]: −0.608
gedunin score (connectivity score) [2]: 0

CCCC(=O)Nc1ncnc2c1ncn2[C@@H]1O[C@@H]2COP(=O)(O)O[C@H]2[C@H]1OC(=O)CCC [bucladesine]
celastrol score (connectivity score) [1]: 0
gedunin score (connectivity score) [2]: −0.144

CCOC(=O)C1=C(C)NC(C)=C(C(=O)OC)C1c1cccc([N+](=O)[O-])c1 (stereo not shown) [nitrendipine]
celastrol score (connectivity score) [1]: 0
gedunin score (connectivity score) [2]: 0

CC(C)c1ccc2c(c1)c(SC(C)(C)C)c(CC(C)(C)C(=O)O)n2Cc1ccc(Cl)cc1 [MK-886]
celastrol score (connectivity score) [1]: 0
celastrol rank [1]: 94
gedunin score (connectivity score) [2]: −0.336
gedunin rank [2]: 155

CC(C)(Sc1cc(C(C)(C)C)c(O)c(C(C)(C)C)c1)Sc1cc(C(C)(C)C)c(O)c(C(C)(C)C)c1 [probucol]
celastrol score (connectivity score) [1]: 0.332
gedunin score (connectivity score) [2]: 0

O=C1NC(=O)c2cc(Nc3ccccc3)c(Nc3ccccc3)cc21 [4,5-dianilinophthalimide]
celastrol score (connectivity score) [1]: 0
gedunin score (connectivity score) [2]: 0

COc1cc2ncnc(Nc3cccc(Cl)c3)c2cc1OC [tyrphostin AG-1478]
celastrol score (connectivity score) [1]: 0
celastrol rank [1]: 127
gedunin score (connectivity score) [2]: 0.529
gedunin rank [2]: 14

O=C(O)c1cc(/N=N/c2ccc(S(=O)(=O)Nc3ccccn3)cc2)ccc1O [sulfasalazine]
celastrol score (connectivity score) [1]: 0
gedunin score (connectivity score) [2]: 0

BW-B70C
celastrol score (connectivity score) [1]: 0.719
celastrol rank [1]: 10
gedunin score (connectivity score) [2]: 0.557
gedunin rank [2]: 12

Cc1cccc(Nc2cc(Cl)nc(SCC(=O)O)n2)c1C [pirinixic acid]
celastrol score (connectivity score) [1]: 0.226
gedunin score (connectivity score) [2]: 0.055

CC(/C=C/C(=O)NO)=C\[C@@H](C)C(=O)c1ccc(N(C)C)cc1 [trichostatin A]
celastrol score (connectivity score) [1]: −0.02
celastrol rank [1]: 141
gedunin score (connectivity score) [2]: 0.427
gedunin rank [2]: 29

O=S(=O)(c1cccc2cnccc12)N1CCCNCC1 [fasudil]
celastrol score (connectivity score) [1]: 0
gedunin score (connectivity score) [2]: 0

C[C@]12CC[C@@H]3c4ccc(O)cc4C[C@@H](CCCCCCCCC[S+]([O-])CCCC(F)(F)C(F)(F)F)[C@H]3[C@@H]1CC[C@@H]2O (stereo partly shown) [fulvestrant]
celastrol score (connectivity score) [1]: 0.069
gedunin score (connectivity score) [2]: 0.19

C=C1[C@@H](C)[C@H]2[C@H](Cc3ccccc3)NC(=O)[C@]23OC(=O)/C=C/[C@H](O)CCC[C@@H](C)C/C=C/[C@H]3[C@@H]1O [cytochalasin B]
celastrol score (connectivity score) [1]: 0
celastrol rank [1]: 125
gedunin score (connectivity score) [2]: 0.476
gedunin rank [2]: 22

CC(=O)N(O)CCCCCNC(=O)CCC(=O)N(O)CCCCCNC(=O)CCC(=O)N(O)CCCCCN [deferoxamine]
celastrol score (connectivity score) [1]: −0.175
gedunin score (connectivity score) [2]: 0

CN(C)CCCN1c2ccccc2Sc2ccc(Cl)cc21 [chlorpromazine]
celastrol score (connectivity score) [1]: 0.08
gedunin score (connectivity score) [2]: 0.218

COC[C@H]1OC(=O)c2coc3c2[C@@]1(C)C1=C(C3=O)[C@@H]2CCC(=O)[C@@]2(C)C[C@H]1OC(C)=O [wortmannin]
celastrol score (connectivity score) [1]: −0.324
gedunin score (connectivity score) [2]: 0.126

Cc1c(C)c2c(c(C)c1O)CCC(C)(COc1ccc(CC3SC(=O)NC3=O)cc1)O2 (stereo not shown) [troglitazone]
celastrol score (connectivity score) [1]: 0.42
gedunin score (connectivity score) [2]: 0.167

NC(=O)N1c2ccccc2C=Cc2ccccc21 [carbamazepine]
celastrol score (connectivity score) [1]: 0.339
gedunin score (connectivity score) [2]: 0.407

C[C@@H](N)[C@H]1CC[C@H](C(=O)Nc2ccncc2)CC1 [Y-27632]
celastrol score (connectivity score) [1]: 0
gedunin score (connectivity score) [2]: −0.353

depudecin
celastrol score (connectivity score) [1]: 0.22
gedunin score (connectivity score) [2]: 0.176

C[C@@H]1C[C@H]2[C@@H]3CCC4=CC(=O)C=C[C@]4(C)[C@@]3(F)[C@@H](O)C[C@]2(C)[C@@]1(O)C(=O)CO [dexamethasone, reference compound]
celastrol score (connectivity score) [1]: 0
gedunin score (connectivity score) [2]: 0

CN1CCN(CCCN2c3ccccc3Sc3ccc(C(F)(F)F)cc32)CC1 [trifluoperazine, reference compound]
gedunin score (connectivity score) [2]: 0.559
